Where a name gives a salt, the structure may show the parent alone.
Key:
[1] = cited from earlier work; for half-life: pharmacokinetic half-life; for time of peak plasma concentrations: after oral dosing, normal subjects
[2] = human, in vivo
Experimental: Twenty-four healthy volunteers (14 females and 10 males), aged 20–55 years, received each of the four treatments. […] Standard pharmacokinetic parameters were calculated, including maximum plasma concentrations over the entire sampling phase (Cmax), time to attain maximal plasma concentrations (Tmax), and area under the plasma concentration-time curve (AUCI-time 0 to infinity).

[3] = system: migraine patients; experiment: Earlier phase II study of metoclopramide on pain variables; assay type: in vivo, human
[4] = naproxen sodium: water of neutral pH; cited from earlier work

## CC(C(=O)O)c1ccc(-c2ccccc2)c(F)c1 (stereo not shown) [flurbiprofen]
[1]
  half-life: about 6 hours

## O=C(c1ccccc1)c1ccc2n1CCC2C(=O)O (stereo not shown) [ketorolac]
[1]
  half-life: 8 to 9 h

## Cc1cccc(Nc2ccccc2C(=O)O)c1C [mefenamic acid]
[1]
  half-life: up to 4 hours

## Cc1ccc(-c2cc(C(F)(F)F)nn2-c2ccc(S(N)(=O)=O)cc2)cc1 [celecoxib]
[1]; in vivo
  time to peak plasma levels: approximately 3 hours
[1]
  half-life: approximately 11 hours

## CC(C(=O)O)c1cccc(C(=O)c2ccccc2)c1 (stereo not shown) [ketoprofen]
[1]; in vivo
  time to peak plasma levels: one-half to 2

## O=C(O)CCc1nc(-c2ccccc2)c(-c2ccccc2)o1 [oxaprozin]
[1]
  half-life: 42 to 50 h

## COc1ccc2cc([C@H](C)C(=O)O)ccc2c1 [naproxen]
[2]
  tolerability: well tolerated

## CCc1cccc2c3c([nH]c12)C(CC)(CC(=O)O)OCC3 (stereo not shown) [etodolac]
[1]
  half-life: about 7 hours

## CC(=O)Oc1ccccc1C(=O)O [aspirin]
[1]
  time of peak plasma concentrations: about 1 hour
[1]; in vivo
  plasma half life: very short

## CCN(CC)CCNC(=O)c1cc(Cl)c(N)cc1OC [Metoclopramide hydrochloride, metoclopramide hydrochloride]
[3]
  effect on pain variables: without significant effect
[4]
  solubility in water: freely soluble
[2]
  tolerability: well tolerated

## Cc1ccc(Cl)c(Nc2ccccc2C(=O)O)c1Cl [meclofenamate]
[1]; in vivo
  time to peak plasma levels: 0.5 to 1 h

## CC(=O)Nc1ccc(O)cc1 [acetaminophen]
[1]
  time of peak plasma concentrations: about 1 hour

— patent US7030162B2, “Treatment of migraine headache” (POZEN Inc., priority 1996, dated 2006)
